From patent publication US11776661B2, “Determination of MAPK-AP-1 pathway activity using unique combination of target genes” (InnoSIGN B.V., priority 2017, dated 2023)

How the values were obtained:
[1] = system: MAPK-AP-1 cellular signaling pathway; assay: MAPK-AP-1 pathway activity prediction (Bayesian network model, 24 target genes list) on GSE28878, HepG2 cell line; type: cell-based, human; conditions: HepG2, 500 nM TPA, 12 h, 24 h, 48 h, vs DMSO control vehicle
Description: A HepG2 cell line was treated with DMSO as control vehicle (group 1: 12 h, all 3 samples are part of the calibration data set; group 3: 24 h, 2 samples are part of the calibration data set; group 5: 48 h, 1 sample is part of the calibration data set) or 500 nM TPA (group 2: 12 h, 1 sample is part of the calibration data set; group 4: 24 h, all 3 samples are part of the calibration data set; group 6: 48 h). In the diagram, the vertical axis indicates the odds (on a log 2 scale) that the TF element is “present” resp. “absent”, which corresponds to the MAPK-AP-1 cellular signaling pathway being active resp. passive, wherein values above the horizontal axis correspond to the TF element being more likely “present”/active and values below the horizontal axis indicate that the odds that the TF element is “absent”/passive are larger than the odds that it is “present”/active.

[2] = system: MAPK-AP-1 cellular signaling pathway; assay: MAPK-AP-1 pathway activity prediction (11 target gene shortlist) on E-MEXP-2573, K562 (erythroleukemia) cells; type: cell-based; conditions: 100 nM TPA for a further 48 h
Description: RNA was extracted from K562 (erythroleukemia) cells after 24 h (groups 1 and 3) or cells were treated with 100 nM TPA for a further 48 h (groups 2 and 4). K562 were either transfected with a control empty vector (groups 1 and 2) or a BASP1-containing vector (groups 3 and 4). In the diagram, the vertical axis indicates the odds (on a log 2 scale) that the TF element is “present” resp. “absent”, which corresponds to the MAPK-AP-1 cellular signaling pathway being active resp. passive, wherein values above the horizontal axis correspond to the TF element being more likely “present”/active and values below the horizontal axis indicate that the odds that the TF element is “absent”/passive are larger than the odds that it is “present”/active.

[3] = system: MAPK-AP-1 cellular signaling pathway; assay: MAPK-AP-1 pathway activity prediction (11 target gene shortlist) on GSE58235, HepG2 (Human Hepatoma) cell line; type: cell-based; conditions: compared to DMSO and Ethanol
Description: The HepG2 (Human Hepatoma) cell line was treated with 0.5% DMSO (group 1: all 3 samples are part of the calibration data set; group 4: 1 sample is part of the calibration data set), 0.5% Ethanol (groups 2 and 5) or 500 nM TPA (group 3: all 3 samples are part of the calibration data set; and group 6) for 24 hours (groups 1 to 3) or 48 hours (groups 4 to 6). In the diagram, the vertical axis indicates the odds (on a log 2 scale) that the TF element is “present” resp. “absent”, which corresponds to the MAPK-AP-1 cellular signaling pathway being active resp. passive, wherein values above the horizontal axis correspond to the TF element being more likely “present”/active and values below the horizontal axis indicate that the odds that the TF element is “absent”/passive are larger than the odds that it is “present”/active.

[4] = system: MAPK-AP-1 cellular signaling pathway; assay: MAPK-AP-1 pathway activity prediction (24 target genes list) on GSE45417, U937 (histiocytic lymphoma) cell line; type: cell-based; conditions: U937, 100 nM TPA vs 0.1% DMSO
Description: The U937 (histiocytic lymphoma) cell line was treated with 0.1% DMSO as control vehicle (group 1: all 3 samples are part of the calibration data set; and group 3), or 100 nM TPA (group 2: all 3 samples are part of the calibration data set; and group 4). Additionally, ZXDC1 knockdown was induced using doxycycline (groups 3 and 4). In the diagram, the vertical axis indicates the odds (on a log 2 scale) that the TF element is “present” resp. “absent”, which corresponds to the MAPK-AP-1 cellular signaling pathway being active resp. passive, wherein values above the horizontal axis correspond to the TF element being more likely “present”/active and values below the horizontal axis indicate that the odds that the TF element is “absent”/passive are larger than the odds that it is “present”/active.

[5] = system: MAPK-AP-1 cellular signaling pathway; assay: MAPK-AP-1 pathway activity prediction (24 target genes list) on GSE66853, U937 cells; type: cell-based, human; conditions: 50 ng/ml TPA for 24 h, compared to Ethanol
Description: U937 cells were treated with Ethanol as control vehicle (group 1: all 3 samples are part of the calibration data set; and group 3) or 50 ng/ml TPA (group 2: 1 sample is part of the calibration data set; and group 4) for 24 h. U937 cells were either transduced with an empty vector (groups 1 and 2) or with an EVI1 expression vector (groups 3 and 4). In the diagram, the vertical axis indicates the odds (on a log 2 scale) that the TF element is “present” resp. “absent”, which corresponds to the MAPK-AP-1 cellular signaling pathway being active resp. passive, wherein values above the horizontal axis correspond to the TF element being more likely “present”/active and values below the horizontal axis indicate that the odds that the TF element is “absent”/passive are larger than the odds that it is “present”/active. […] Although it is known that the FOS and JUN promoter region contains EVI1 binding sites it seems that this effect on AP-1 activity is very small compared to the addition of 50 ng/ml TPA.

[6] = system: MAPK-AP-1 cellular signaling pathway; assay: MAPK-AP-1 pathway activity prediction (24 target genes list) on E-MEXP-2213, K562 (erythroleukemia) cells; type: cell-based; conditions: K562, 10 nM TPA vs not treated
Description: K562 (erythroleukemia) cells were either not treated (group 1) or treated with 10 nM TPA (group 2). In the diagram, the vertical axis indicates the odds (on a log 2 scale) that the TF element is “present” resp. “absent”, which corresponds to the MAPK-AP-1 cellular signaling pathway being active resp. passive, wherein values above the horizontal axis correspond to the TF element being more likely “present”/active and values below the horizontal axis indicate that the odds that the TF element is “absent”/passive are larger than the odds that it is “present”/active.

[7] = system: MAPK-AP-1 cellular signaling pathway; assay: MAPK-AP-1 pathway activity prediction (11 target gene shortlist) on GSE40117, HepG2; type: cell-based, human; conditions: HepG2, 0.0001 μM TPA vs control conditions
Description: (§1) Human embryonic stem cell derived hepatocyte like cells (hES-Hep) were treated with 0.11 μM TPA (group 2: all 3 samples are part of the calibration data set) and compared to control conditions (group 1). HepG2 (a human liver cancer cell line) were treated with 0.0001 μM TPA (group 4: 3 samples are part of the calibration data set) and compared to control conditions (group 3: 1 sample is part of the calibration data set). In the diagram, the vertical axis indicates the odds (on a log 2 scale) that the TF element is “present” resp. “absent”, which corresponds to the MAPK-AP-1 cellular signaling pathway being active resp. passive, wherein values above the horizontal axis correspond to the TF element being more likely “present”/active and values below the horizontal axis indicate that the odds that the TF element is “absent”/passive are larger than the odds that it is “present”/active.

[8] = system: MAPK-AP-1 cellular signaling pathway; assay: MAPK-AP-1 pathway activity prediction (11 target gene shortlist) on GSE40117, hES-Hep cells; type: cell-based, Human; conditions: 0.11 μM TPA vs control conditions
Description: as §1

Measured: AP-1 activity (log2 odds that TF element is present) after exposure

CCCCCCCCCCCCCC(=O)O[C@@H]1[C@@H](C)[C@@]2(O)[C@@H](C=C(CO)C[C@]3(O)C(=O)C(C)=C[C@@H]23)[C@@H]2C(C)(C)[C@]12OC(C)=O [TPA, 12-O-Tetradecanoylphorbol-13-acetate]
large increase: [1] | [2]; K562 transfected with BASP1-containing vector | [2]; K562 transfected with control empty vector | [3]; HepG2, 500 nM TPA for 24 hours | [3]; HepG2, 500 nM TPA for 48 hours | [4]; ZXDC1 knockdown induced using doxycycline | [4]; without ZXDC1 knockdown | [5]; U937 transduced with EVI1 expression vector | [5]; U937 transduced with empty vector | [6] | [7] | [8]
